Source: patent US20260103465A1, “GLYCOGEN SYNTHASE KINASE 3 INHIBITORS AND USES THEREOF” (The Broad Institute, Inc., priority 2023, published 2026)
Read-outs that look alike come from different tables or passages of the source.

How the values were obtained:
[1] = tested on: MDR1-MDCK cell monolayers; assay: MDR1/MDCK permeability assay; type: in vitro ADME; settings: for MDCK Permeability (MDR1-MDCK); Mean; Papp(A-B) (10^−6 cm/s): A to B; for MDCK Permeability (MDR1-MDCK); Mean; Papp(B-A) (10^−6 cm/s): B to A
How it was run: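 Confluent MDR1-MDCK monolayers (7–11 days old), compound dosed at 5 μM in HBSSg (≤1% DMSO) apically or basolaterally, pH 7.4 both sides, receiver with 1% BSA, N=2. Both sides sampled at 120 min and quantified by LC-MS/MS; Papp in each direction, efflux ratio B-A/A-B and recovery reported.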

[2] = Human liver microsomal stability; type: in vitro ADME; settings: human liver microsomes
Method: Stability of compound (5 μL of a 10 mM DMSO solution) in human liver microsomes was tested in duplicate by incubating compound at 1 μM for 60 minutes at 37° C. Compound level at 60 minutes was compared to level at 0 minutes, and percent remaining was calculated. Order by selecting Microsomal Stability in Prometheus, checking boxes for desired species. Assay Controls: microsomes with NADPH without compound-matrix interference. Microsomes plus compound without NADPH—non-enzymatic instability.

[3] = target: T1, GSK3b (GST-full length GSK3b) (Homo sapiens, UniProt P49841); assay: GSK3b TR-FRET kinase inhibition assay; type: biochemical
T1 construct: GST-full length GSK3b: [SignalChem G08-9G]; purchased SignalChem G08-9G
T1 sequence (P49841 whole entry): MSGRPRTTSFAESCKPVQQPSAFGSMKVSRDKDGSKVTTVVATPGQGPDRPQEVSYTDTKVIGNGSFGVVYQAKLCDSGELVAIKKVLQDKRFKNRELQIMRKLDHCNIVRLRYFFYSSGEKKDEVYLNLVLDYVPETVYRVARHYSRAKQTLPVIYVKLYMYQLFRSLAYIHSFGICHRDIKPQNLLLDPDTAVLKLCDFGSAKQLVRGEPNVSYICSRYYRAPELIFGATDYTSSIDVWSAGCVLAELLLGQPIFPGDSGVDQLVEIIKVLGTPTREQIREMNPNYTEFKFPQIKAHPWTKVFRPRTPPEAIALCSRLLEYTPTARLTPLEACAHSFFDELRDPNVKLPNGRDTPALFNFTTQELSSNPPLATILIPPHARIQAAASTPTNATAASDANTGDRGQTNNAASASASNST
How it was run: (§1)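 IC50 derived from normalized 665/615 TR-FRET signal (Tb anti-pSer641 antibody, streptavidin-d2), read after EDTA stop. Reaction: 1 nM GST-full-length enzyme, 30 min compound pre-incubation, 100 min at ambient temperature in Tris pH 7.5 with 1% DMSO, 200 nM biotinylated primed glycogen synthase peptide, ATP 2 μM to 1 mM.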

[4] = target: T2, GSK3a (GST-full length GSK3a) (Homo sapiens, UniProt P49840); assay: GSK3a TR-FRET kinase inhibition assay; type: biochemical
T2 construct: GST-full length GSK3a [SignalChem G08-10G]; purchased SignalChem G08-10G
T2 sequence (P49840 whole entry): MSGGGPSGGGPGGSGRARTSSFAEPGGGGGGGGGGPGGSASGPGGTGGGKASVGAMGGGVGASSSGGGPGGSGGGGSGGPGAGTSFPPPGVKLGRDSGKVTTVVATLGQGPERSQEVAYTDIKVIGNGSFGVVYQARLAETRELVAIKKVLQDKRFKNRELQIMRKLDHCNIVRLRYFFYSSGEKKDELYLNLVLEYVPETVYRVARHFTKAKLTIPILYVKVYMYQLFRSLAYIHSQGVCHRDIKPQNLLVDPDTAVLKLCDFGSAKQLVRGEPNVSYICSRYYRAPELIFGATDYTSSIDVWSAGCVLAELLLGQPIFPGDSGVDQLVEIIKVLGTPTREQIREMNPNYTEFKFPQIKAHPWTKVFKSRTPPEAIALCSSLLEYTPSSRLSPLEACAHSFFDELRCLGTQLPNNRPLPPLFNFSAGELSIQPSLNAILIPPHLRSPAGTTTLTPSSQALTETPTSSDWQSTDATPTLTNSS
How it was run: as §1

[5] = 2 μM ATP, read-out: GSK3β TR-FRET 2 μM ATP GMean IC50
[6] = 1 mM ATP, Table 4, read-out: GSK3β TR-FRET 1 mM ATP GMean IC50
[7] = 4 μM ATP, read-out: GSK3α TR-FRET 4 μM ATP GMean IC50
[8] = 1 mM ATP, Table 4, read-out: GSK3α TR-FRET 1 mM ATP GMean IC50

## CCC1(c2cccc(-c3ccnc4c3CCCC4)c2)C2=C(CC(C)(C)CC2=O)Nc2ncc(F)cc21 (single isomer, unassigned) [Compound 165B]
[1]; Table 4
  MDCK Permeability (MDR1-MDCK); Mean; Papp(A-B) (10^−6 cm/s): 4.4 10^−6 cm/s
  MDCK Permeability (MDR1-MDCK); Mean; Papp(B-A) (10^−6 cm/s): 24 10^−6 cm/s
[1]; Papp B-A/A-B, Table 4
  MDCK Permeability (MDR1-MDCK); Mean; P. Ratio(B-A/A-B) Efflux Ratio: 5.5
[2]; Table 4
  Microsome Stability (Human) (DMPK_BIIB); Mean; in vitro t1/2: 4.7 min
[3]; [5]
  IC50: ≤ 100 nM
[3]; [6]
  IC50: 100 to 1000 nM
[4]; [7]
  IC50: ≤ 100 nM
[4]; [8]
  IC50: 100 to 1000 nM

## CC(C)(C)Cc1cnccc1-c1cccc(C2(C)C3=C(CC(C)(C)CC3=O)Nc3ncc(F)cc32)c1 (single isomer, unassigned) [Compound 168A]
[1]; Table 3
  MDCK Permeability (MDR1-MDCK); Mean; Papp(A-B) (10^−6 cm/s): 2.5 10^−6 cm/s
  MDCK Permeability (MDR1-MDCK); Mean; Papp(B-A) (10^−6 cm/s): 2.2 10^−6 cm/s
[1]; Papp B-A/A-B, Table 3
  MIDCK Permeability (MDR1-MDCK); Mean; P. Ratio(B-A/A-B) Efflux Ratio: 0.90
[2]; Table 3
  Microsome Stability (Human) (DMPK_BIIB); Mean; in vitro t1/2: 33 min
[3]; 1 mM ATP, Table 3, read-out: GSK3b TR-FRET 1 mM ATP Average IC50
  IC50: 100 to 1000 nM
[4]; 1 mM ATP, Table 3, read-out: GSK3a TR-FRET 1 mM ATP Average IC50
  IC50: 100 to 1000 nM

## CCC1(c2cccc(O)c2)C2=C(CC(C)(C)CC2=O)Nc2ncccc21 (single isomer, unassigned) [Compound 1004A]
[1]; Table 4
  MDCK Permeability (MDR1-MDCK); Mean; Papp(A-B) (10^−6 cm/s): 1.2 10^−6 cm/s
  MDCK Permeability (MDR1-MDCK); Mean; Papp(B-A) (10^−6 cm/s): 42 10^−6 cm/s
[1]; Papp B-A/A-B, Table 4
  MDCK Permeability (MDR1-MDCK); Mean; P. Ratio(B-A/A-B) Efflux Ratio: 37
[2]; Table 4
  Microsome Stability (Human) (DMPK_BIIB); Mean; in vitro t1/2: 7.7 min
[3]; [5]
  IC50: ≤ 100 nM
[4]; [7]
  IC50: ≤ 100 nM

## CCC1(c2cccc(O)c2)C2=C(CC(C)(C)CC2=O)Nc2ncccc21 (single isomer, unassigned) [Compound 1004B]
[1]; Table 4
  MDCK Permeability (MDR1-MDCK); Mean; Papp(A-B) (10^−6 cm/s): 0.7 10^−6 cm/s
  MDCK Permeability (MDR1-MDCK); Mean; Papp(B-A) (10^−6 cm/s): 47 10^−6 cm/s
[1]; Papp B-A/A-B, Table 4
  MDCK Permeability (MDR1-MDCK); Mean; P. Ratio(B-A/A-B) Efflux Ratio: 65
[2]; Table 4
  Microsome Stability (Human) (DMPK_BIIB); Mean; in vitro t1/2: 5.3 min
[3]; [5]
  IC50: > 5000 nM
[4]; [7]
  IC50: 1000 to 5000 nM

## CCC1(c2ccccc2)C2=C(Nc3ncccc31)C(F)C(C)(C)CC2=O (single isomer, unassigned) [Compound 1006C]
[1]; Table 4
  MDCK Permeability (MDR1-MDCK); Mean; Papp(A-B) (10^−6 cm/s): 18 10^−6 cm/s
  MDCK Permeability (MDR1-MDCK); Mean; Papp(B-A) (10^−6 cm/s): 31 10^−6 cm/s
[1]; Papp B-A/A-B, Table 4
  MDCK Permeability (MDR1-MDCK); Mean; P. Ratio(B-A/A-B) Efflux Ratio: 1.8
[2]; Table 4
  Microsome Stability (Human) (DMPK_BIIB); Mean; in vitro t1/2: 37 min
[3]; [5]
  IC50: 1000 to 5000 nM
[4]; [7]
  IC50: 1000 to 5000 nM

## CCC1(c2ccccc2)C2=C(CC(C)(C)NC2=O)Nc2ncc(F)cc21 (single isomer, unassigned) [Compound 1007B]
[1]; Table 4
  MDCK Permeability (MDR1-MDCK); Mean; Papp(A-B) (10^−6 cm/s): 7.8 10^−6 cm/s
  MDCK Permeability (MDR1-MDCK); Mean; Papp(B-A) (10^−6 cm/s): 45 10^−6 cm/s
[1]; Papp B-A/A-B, Table 4
  MDCK Permeability (MDR1-MDCK); Mean; P. Ratio(B-A/A-B) Efflux Ratio: 5.7
[2]; Table 4
  Microsome Stability (Human) (DMPK_BIIB); Mean; in vitro t1/2: 211 min
[3]; [5]
  IC50: ≤ 100 nM
[3]; [6]
  IC50: 5000 to 20000 nM
[4]; [7]
  IC50: ≤ 100 nM
[4]; [8]
  IC50: 1000 to 5000 nM

## CCC1(c2ccccc2)C2=C(CC3(CCC3)CC2=O)Nc2ncc(F)cc21 (single isomer, unassigned) [Compound 1008A]
[1]; Table 4
  MDCK Permeability (MDR1-MDCK); Mean; Papp(A-B) (10^−6 cm/s): 22 10^−6 cm/s
  MDCK Permeability (MDR1-MDCK); Mean; Papp(B-A) (10^−6 cm/s): 26 10^−6 cm/s
[1]; Papp B-A/A-B, Table 4
  MDCK Permeability (MDR1-MDCK); Mean; P. Ratio(B-A/A-B) Efflux Ratio: 1.2
[2]; Table 4
  Microsome Stability (Human) (DMPK_BIIB); Mean; in vitro t1/2: 19 min
[3]; [5]
  IC50: ≤ 100 nM
[3]; [6]
  IC50: 1000 to 5000 nM
[4]; [7]
  IC50: ≤ 100 nM
[4]; [8]
  IC50: 100 to 1000 nM

## CCC1(c2ccccc2)C2=C(CC3(CCC3)CC2=O)Nc2ncc(F)cc21 (single isomer, unassigned) [Compound 1008B]
[1]; Table 4
  MDCK Permeability (MDR1-MDCK); Mean; Papp(A-B) (10^−6 cm/s): 21 10^−6 cm/s
  MDCK Permeability (MDR1-MDCK); Mean; Papp(B-A) (10^−6 cm/s): 31 10^−6 cm/s
[1]; Papp B-A/A-B, Table 4
  MDCK Permeability (MDR1-MDCK); Mean; P. Ratio(B-A/A-B) Efflux Ratio: 1.5
[2]; Table 4
  Microsome Stability (Human) (DMPK_BIIB); Mean; in vitro t1/2: 1.6 min
[3]; [5]
  IC50: 1000 to 5000 nM
[4]; [7]
  IC50: 1000 to 5000 nM

## CCC1(c2cccc(O)c2)C2=C(CC(C)(C)CC2=O)Nc2ncc(F)cc21 (single isomer, unassigned) [Compound 1010A]
[1]; Table 4
  MDCK Permeability (MDR1-MDCK); Mean; Papp(A-B) (10^−6 cm/s): 0.60 10^−6 cm/s
  MDCK Permeability (MDR1-MDCK); Mean; Papp(B-A) (10^−6 cm/s): 28 10^−6 cm/s
[1]; Papp B-A/A-B, Table 4
  MDCK Permeability (MDR1-MDCK); Mean; P. Ratio(B-A/A-B) Efflux Ratio: 51
[2]; Table 4
  Microsome Stability (Human) (DMPK_BIIB); Mean; in vitro t1/2: 6.1 min
[3]; [5]
  IC50: > 5000 nM
[4]; [7]
  IC50: > 5000 nM

## CCC1(c2cccc(O)c2)C2=C(CC(C)(C)CC2=O)Nc2ncc(F)cc21 (single isomer, unassigned) [Compound 1010B]
[1]; Table 4
  MDCK Permeability (MDR1-MDCK); Mean; Papp(A-B) (10^−6 cm/s): 0.80 10^−6 cm/s
  MDCK Permeability (MDR1-MDCK); Mean; Papp(B-A) (10^−6 cm/s): 39 10^−6 cm/s
[1]; Papp B-A/A-B, Table 4
  MDCK Permeability (MDR1-MDCK); Mean; P. Ratio(B-A/A-B) Efflux Ratio: 48
[2]; Table 4
  Microsome Stability (Human) (DMPK_BIIB); Mean; in vitro t1/2: 11 min
[3]; [5]
  IC50: ≤ 100 nM
[4]; [7]
  IC50: ≤ 100 nM

## CCC1(c2cccc(C(C)C)c2)C2=C(CC(C)(C)CC2=O)Nc2ncccc21 (single isomer, unassigned) [Compound 1011B]
[1]; Table 4
  MDCK Permeability (MDR1-MDCK); Mean; Papp(A-B) (10^−6 cm/s): 15 10^−6 cm/s
  MDCK Permeability (MDR1-MDCK); Mean; Papp(B-A) (10^−6 cm/s): 28 10^−6 cm/s
[1]; Papp B-A/A-B, Table 4
  MDCK Permeability (MDR1-MDCK); Mean; P. Ratio(B-A/A-B) Efflux Ratio: 1.9
[2]; Table 4
  Microsome Stability (Human) (DMPK_BIIB); Mean; in vitro t1/2: 3.8 min
[3]; [5]
  IC50: ≤ 100 nM
[4]; [7]
  IC50: ≤ 100 nM

## CCC1(c2cccc(-c3cccnc3)c2)C2=C(CC(C)(C)CC2=O)Nc2ncccc21 (single isomer, unassigned) [Compound 1015A]
[1]; Table 4
  MDCK Permeability (MDR1-MDCK); Mean; Papp(A-B) (10^−6 cm/s): 4.7 10^−6 cm/s
  MDCK Permeability (MDR1-MDCK); Mean; Papp(B-A) (10^−6 cm/s): 44 10^−6 cm/s
[1]; Papp B-A/A-B, Table 4
  MDCK Permeability (MDR1-MDCK); Mean; P. Ratio(B-A/A-B) Efflux Ratio: 9.5
[2]; Table 4
  Microsome Stability (Human) (DMPK_BIIB); Mean; in vitro t1/2: 2.8 min
[3]; [5]
  IC50: ≤ 100 nM
[4]; [7]
  IC50: ≤ 100 nM

## CCC1(c2cccc(-c3ccccn3)c2)C2=C(CC(C)(C)CC2=O)Nc2ncccc21 (single isomer, unassigned) [Compound 1016A]
[1]; Table 4
  MDCK Permeability (MDR1-MDCK); Mean; Papp(A-B) (10^−6 cm/s): 4.5 10^−6 cm/s
  MDCK Permeability (MDR1-MDCK); Mean; Papp(B-A) (10^−6 cm/s): 32 10^−6 cm/s
[1]; Papp B-A/A-B, Table 4
  MDCK Permeability (MDR1-MDCK); Mean; P. Ratio(B-A/A-B) Efflux Ratio: 6.9
[2]; Table 4
  Microsome Stability (Human) (DMPK_BIIB); Mean; in vitro t1/2: 1.5 min
[3]; [5]
  IC50: ≤ 100 nM
[4]; [7]
  IC50: ≤ 100 nM

## CCC1(c2cccc(-c3ccncc3)c2)C2=C(CC(C)(C)CC2=O)Nc2ncccc21 (single isomer, unassigned) [Compound 1017A]
[1]; Table 4
  MDCK Permeability (MDR1-MDCK); Mean; Papp(A-B) (10^−6 cm/s): 6.9 10^−6 cm/s
  MDCK Permeability (MDR1-MDCK); Mean; Papp(B-A) (10^−6 cm/s): 32 10^−6 cm/s
[1]; Papp B-A/A-B, Table 4
  MDCK Permeability (MDR1-MDCK); Mean; P. Ratio(B-A/A-B) Efflux Ratio: 4.6
[2]; Table 4
  Microsome Stability (Human) (DMPK_BIIB); Mean; in vitro t1/2: 6.2 min
[3]; [5]
  IC50: 100 to 1000 nM
[4]; [7]
  IC50: ≤ 100 nM
